What was measured:
Test in all cases: relative viability (nuclei count vs DMSO), 5 days (fraction); higher = more cells survive
NCI-H596 = system: NCI-H596
Method in brief: (§1)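 Cells from lung cancer lines were seeded into 1536-well plates and, one day later, dosed by pin tool. Treatments were either a single drug or a fixed dose of an anchor drug with five library-drug doses (not always all listed) in √10 steps. After 5 days, nuclei were stained in a one-step fixation (final 0.05% Triton X-100, 1% formaldehyde, 1 ug/ml Hoechst) and counted on 4× images, and relative viability is the treated-to-vehicle nuclei ratio, as the median of duplicate plates.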

LC-2-ad = system: LC-2-ad
Method in brief: as §1

NCI-H358 = system: NCI-H358
Method in brief: as §1

NCI-H2347 = system: NCI-H2347
Method in brief: as §1

NCI-H1993 = system: NCI-H1993
Method in brief: as §1

NCI-H441 = system: NCI-H441
Method in brief: as §1

NCI-H522 = system: NCI-H522
Method in brief: as §1

HCC-78 = system: HCC-78
Method in brief: as §1

NCI-H1793 = system: NCI-H1793
Method in brief: as §1

ABC-1 = system: ABC-1
Method in brief: as §1

A-427 = system: A-427
Method in brief: as §1

LOU-NH91 = system: LOU-NH91
Method in brief: as §1

HCC-44 = system: HCC-44
Method in brief: as §1

EKVX = system: EKVX
Method in brief: as §1

HOP-62 = system: HOP-62
Method in brief: as §1

LXF-289 = system: LXF-289
Method in brief: as §1

NCI-H1734 = system: NCI-H1734
Method in brief: as §1

BEN = system: BEN
Method in brief: as §1

For `C=C1C(=O)O[C@@H](CCCCCCCC)[C@@H]1C(=O)O` [C-75] + NC(=O)Nc1cc(-c2cccc(F)c2)sc1C(=O)N[C@H]1CCCNC1 [AZD7762] (partner 0.2 µM), the relative viability (NCI-H596; first compound 0.08 µM) was 1.23, the relative viability (NCI-H596; first compound 0.253 µM) was 1.12 and the relative viability (NCI-H596; first compound 0.8 µM) was 0.998. It also gave a relative viability (NCI-H596; first compound 2.53 µM) of 0.975, a relative viability (NCI-H596; first compound 8 µM) of 0.988 and a relative viability (LC-2-ad; first compound 0.08 µM) of 0.833. For the same compound, the relative viability (LC-2-ad; first compound 0.253 µM) was 0.813, the relative viability (LC-2-ad; first compound 0.8 µM) was 0.819 and the relative viability (LC-2-ad; first compound 2.53 µM) was 0.728. For the same compound, the relative viability (LC-2-ad; first compound 8 µM) was 0.853, the relative viability (NCI-H358; first compound 0.08 µM) was 0.55 and the relative viability (NCI-H358; first compound 0.253 µM) was 0.531. The relative viability (NCI-H358; first compound 0.8 µM) was 0.454, the relative viability (NCI-H358; first compound 2.53 µM) was 0.456 and the relative viability (NCI-H358; first compound 8 µM) was 0.477. The relative viability (NCI-H2347; first compound 0.08 µM) was 0.725, the relative viability (NCI-H2347; first compound 0.253 µM) was 1 and the relative viability (NCI-H2347; first compound 0.8 µM) was 0.715. For the same compound, the relative viability (NCI-H2347; first compound 2.53 µM) was 0.705, the relative viability (NCI-H2347; first compound 8 µM) was 0.665 and the relative viability (NCI-H1993; first compound 0.08 µM) was 0.959. It also gave a relative viability (NCI-H1993; first compound 0.253 µM) of 0.998, a relative viability (NCI-H1993; first compound 0.8 µM) of 0.772 and a relative viability (NCI-H1993; first compound 2.53 µM) of 0.687. The relative viability (NCI-H1993; first compound 8 µM) was 0.685, the relative viability (NCI-H441; first compound 0.08 µM) was 1.26 and the relative viability (NCI-H441; first compound 0.253 µM) was 1.3. It also gave a relative viability (NCI-H441; first compound 0.8 µM) of 1.05, a relative viability (NCI-H441; first compound 8 µM) of 1.06 and a relative viability (NCI-H522; first compound 0.08 µM) of 0.851. It also gave a relative viability (NCI-H522; first compound 0.253 µM) of 0.717, a relative viability (NCI-H522; first compound 0.8 µM) of 0.846 and a relative viability (NCI-H522; first compound 2.53 µM) of 0.855. The relative viability (NCI-H522; first compound 8 µM) was 0.727, the relative viability (HCC-78; first compound 0.08 µM) was 0.584 and the relative viability (HCC-78; first compound 0.253 µM) was 0.409. The relative viability (HCC-78; first compound 0.8 µM) was 0.579, the relative viability (HCC-78; first compound 8 µM) was 0.72 and the relative viability (NCI-H1793; first compound 0.08 µM) was 0.478. For the same compound, the relative viability (NCI-H1793; first compound 0.253 µM) was 0.645, the relative viability (NCI-H1793; first compound 2.53 µM) was 0.293 and the relative viability (NCI-H1793; first compound 8 µM) was 0.854. The relative viability (ABC-1; first compound 0.08 µM) was 0.736, the relative viability (ABC-1; first compound 0.253 µM) was 0.461 and the relative viability (ABC-1; first compound 0.8 µM) was 0.685. For the same compound, the relative viability (ABC-1; first compound 2.53 µM) was 0.672, the relative viability (ABC-1; first compound 8 µM) was 0.775 and the relative viability (A-427; first compound 0.08 µM) was 0.698. The relative viability (A-427; first compound 0.253 µM) was 0.825, the relative viability (A-427; first compound 0.8 µM) was 0.537 and the relative viability (A-427; first compound 2.53 µM) was 0.72. The relative viability (A-427; first compound 8 µM) was 0.536, the relative viability (LOU-NH91; first compound 0.08 µM) was 0.739 and the relative viability (LOU-NH91; first compound 0.253 µM) was 0.704. It also gave a relative viability (LOU-NH91; first compound 0.8 µM) of 0.684, a relative viability (LOU-NH91; first compound 8 µM) of 0.818 and a relative viability (HCC-44; first compound 0.08 µM) of 1.03. It also gave a relative viability (HCC-44; first compound 0.253 µM) of 1.05, a relative viability (HCC-44; first compound 0.8 µM) of 0.999 and a relative viability (HCC-44; first compound 2.53 µM) of 0.953. The relative viability (HCC-44; first compound 8 µM) was 1.08, the relative viability (EKVX; first compound 0.08 µM) was 0.683 and the relative viability (EKVX; first compound 0.253 µM) was 0.765. It also gave a relative viability (EKVX; first compound 0.8 µM) of 0.498, a relative viability (EKVX; first compound 8 µM) of 0.51 and a relative viability (HOP-62; first compound 0.08 µM) of 0.592. The relative viability (HOP-62; first compound 0.253 µM) was 1.09, the relative viability (HOP-62; first compound 0.8 µM) was 0.522 and the relative viability (HOP-62; first compound 2.53 µM) was 0.657. The relative viability (HOP-62; first compound 8 µM) was 0.91, the relative viability (LXF-289; first compound 0.08 µM) was 1.07 and the relative viability (LXF-289; first compound 0.253 µM) was 1.21. It also gave a relative viability (LXF-289; first compound 0.8 µM) of 1.02, a relative viability (LXF-289; first compound 2.53 µM) of 1.07 and a relative viability (LXF-289; first compound 8 µM) of 1.21. For the same compound, the relative viability (NCI-H1734; first compound 0.08 µM) was 0.562, the relative viability (NCI-H1734; first compound 0.253 µM) was 0.587 and the relative viability (NCI-H1734; first compound 0.8 µM) was 0.488. For the same compound, the relative viability (NCI-H1734; first compound 2.53 µM) was 0.278, the relative viability (NCI-H1734; first compound 8 µM) was 0.664 and the relative viability (BEN; first compound 0.08 µM) was 0.676. It also gave a relative viability (BEN; first compound 0.253 µM) of 0.729, a relative viability (BEN; first compound 0.8 µM) of 0.589 and a relative viability (BEN; first compound 2.53 µM) of 0.633. For the same compound, the relative viability (BEN; first compound 8 µM) was 0.627.

Reference: the supplement of paper PMC10307832
